Experiment in all cases: NCI anticancer screen, dose series, 48 h
The subject of assay [1] is MALME-3M melanoma.
In assay [2] the test system is SF-539 CNS.
The test system of assay [3] is RXF 393 renal.
The subject of assay [4] is SW-620 colon.
Assay [5] deals with BT-549 breast.
In assay [6] the test system is UACC-257 melanoma.
Assay [7] deals with TK-10 renal.
In assay [8] the test system is 786-0 renal.
Assay [9] relates to MOLT-4 leukemia.
Assay [10] has as its system HCT-116 colon.

Each structure is given as a SMILES string.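 Five compound concentrations were applied to cells in 96-well plates for 48 hours; endpoints were derived by simple linear interpolation of the resulting dose-response curve. GI50 = concentration required for 50% inhibition of growth. At the TGI there is no net growth.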

Take `COc1ccc(-c2nnc(COc3ccc(C(=O)/C=C/c4ccco4)cc3)o2)cc1`: the GI50 was 2.82 µM in assay [1]; 1.8 µM in assay [2]; 1.87 µM in assay [3]; 1.91 µM in assay [4]; 2.87 µM in assay [5]; 2.94 µM in assay [6]. The GI50 in [7] was 2.81 µM; in assay [8] it was 1.89 µM; in [9] it was 2.89 µM; in [10] it was 1.82 µM. Besides, the TGI in [1] is 7.43 µM; in assay [2] it was 3.63 µM; in assay [3], 3.62 µM; in [4], 4.11 µM; in [5], 8.16 µM; in assay [6], 10.5 µM. For the same compound, the TGI is 6.25 µM in assay [7], 3.65 µM in [8], 9.05 µM in assay [9] and 3.36 µM in assay [10].
Take `Fc1cc2[nH]ncc2c2c3c(c(-c4cn[nH]c4)nc12)CCCC3`: the GI50 in assay [1] is 0.953 µM; in assay [2] it was 1.14 µM; in assay [3], 0.275 µM; in assay [4] it was 0.451 µM; in assay [5], 1.38 µM; in assay [6], 1.72 µM. Moreover, the GI50 was 1.21 µM in assay [7], 2.38 µM in assay [8], 1.72 µM in assay [9] and 0.498 µM in assay [10]. Besides, the TGI was 3.16 µM in [1]; 2.82 µM in assay [2]; 1.27 µM in [3]; > 26.6 µM in assay [4]; 4.94 µM in [5]; 5.69 µM in assay [6]. Also, the TGI was > 27.8 µM in [7], > 28 µM in assay [8], 6.15 µM in assay [9] and > 37.5 µM in assay [10].
For the compound `C=C1C(=O)O[C@H]2[C@H]1CC/C(COC(=O)c1c[nH]c3ccccc13)=C\CC[C@@]1(C)O[C@@H]21`, the GI50 in assay [1] is 0.324 µM; in [2] it was 0.264 µM; in [3], 0.19 µM; in assay [4] it was 0.234 µM; in assay [5], 0.175 µM; in [6], 0.368 µM. Besides, the GI50 in [7] is 0.28 µM; in [8], 0.326 µM; in [9], 0.282 µM; in [10] it was 0.193 µM. Besides, the TGI in [1] came to 1.27 µM; in [2], 1 µM; in assay [3] it was 0.391 µM; in assay [4], 0.752 µM; in assay [5], 0.414 µM; in assay [6] it was 1.49 µM. Besides, the TGI in assay [7] was 0.736 µM; in [8], 1.13 µM; in [9], 1.45 µM; in assay [10], 0.459 µM.
For `Cc1ccccc1S(=O)(=O)OC1NS(=O)(=O)c2ccccc21` (centres undefined), the TGI in [1], in [2], in [3], in assay [4], in assay [5] and in [6] was > 100 µM in each case. The TGI in [7], in assay [8], in assay [9] and in [10] was > 100 µM each time.
In the case of `C=C1NC(=O)C(C(C)CC)NC(=O)C2CSCC(NC(=O)CCC(=O)O)C(=O)NC(Cc3ccccc3)C(=O)NC(C)C(=O)NC(CC(C)CC)C(=O)NC(C(=O)NC(Cc3ccccc3)C(=O)N3CCCC3C(=O)N2)C(C)OC(=O)C(CO)NC(=O)C(C(O)COC)N(C)C(=O)C(C(C)C)NC(=O)C(CC(C)CC)NC1=O` (centres undefined), the GI50 in assay [1] was 0.0326 µM; in assay [2], 0.00868 µM; in [3], 0.0136 µM; in [4], 0.0175 µM; in assay [5], 0.0728 µM; in [6] it was > 6 µM. Moreover, the GI50 in [7] was 0.95 µM; in assay [8], 0.0358 µM; in assay [9], 0.0552 µM; in [10] it was 0.0137 µM. Further, the TGI in assay [1] is > 6 µM; in assay [2] it was 0.279 µM; in assay [3], > 6 µM; in [4] it was > 6 µM; in assay [5], > 6 µM; in [6] it was > 6 µM. For the same compound, the TGI in assay [7], in [8], in assay [9] and in assay [10] was > 6 µM in each case.
On to `CCN1CCN(c2nc(C)cc(N(CCNc3ccnc4cc(Cl)ccc34)Cc3ccc4c(c3)OCO4)n2)CC1`, for which the GI50 was 1.84 µM in [1]; 1.7 µM in assay [2]; 1.44 µM in assay [3]; 1.62 µM in assay [4]; 1.74 µM in assay [5]; 1.83 µM in assay [6]. Further, the GI50 in assay [7] was 1.66 µM; in assay [8], 1.54 µM; in assay [9], 2.1 µM; in [10] it was 1.38 µM. For the same compound, the TGI in [1] is 3.44 µM; in assay [2], 3.18 µM; in assay [3], 3.08 µM; in assay [4], 3.55 µM; in assay [5], 3.73 µM; in assay [6], 3.6 µM. The TGI is 3.16 µM in assay [7], 3.08 µM in [8], 6.2 µM in assay [9] and 3.51 µM in assay [10].
Take `COc1cc2c3c(n(C)c(=O)c2cc1OC)-c1cc2c(cc1/C3=C\CCN)OCO2`: the GI50 is 0.239 µM in assay [1]; 0.215 µM in [2]; 0.823 µM in assay [3]; < 0.01 µM in [4]; 2.13 µM in [5]; 1.03 µM in assay [6]. The GI50 was 1.17 µM in assay [7], 0.132 µM in assay [8], < 0.01 µM in assay [9] and < 0.024 µM in assay [10]. For the same compound, the TGI was determined as 2.07 µM in assay [1]; 3.74 µM in assay [2]; 6.86 µM in [3]; 1.62 µM in assay [4]; 46.1 µM in assay [5]; 16.9 µM in [6]. Moreover, the values for the TGI in assay [7], in [8] and in assay [10] were 6.72 µM, 6.21 µM and 0.348 µM, respectively.
For the compound `COc1cc(OC)cc(-c2cc(=O)c3c(OC)c(OC)c(OC)c(OC)c3o2)c1`, the TGI is > 100 µM in assay [1]; > 100 µM in assay [2]; 84.8 µM in assay [3]; > 100 µM in assay [4]; > 100 µM in [5]; > 100 µM in assay [6]. Also, the TGI in [7], in assay [8], in assay [9] and in [10] was > 100 µM each time.
For the compound `C[C@@H]1CCC2[C@@H](C)[C@@H](OCC(CO[C@H]3OC4O[C@@]5(C)CC[C@H]6[C@H](C)CCC([C@H]3C)[C@@]46OO5)OC(=O)CCC(=O)O)OC3O[C@@]4(C)CC[C@@H]1[C@]32OO4` (some centres undefined), the GI50 in assay [1] was < 0.01 µM; in assay [2], 2.26 µM; in assay [3] it was < 0.01 µM; in [4], 0.0285 µM; in assay [5], 3.74 µM; in [6] it was 0.708 µM. The GI50 in [7] was < 0.046 µM; in [8], < 0.0151 µM; in [9], 0.537 µM; in assay [10] it was < 0.01 µM. In addition, the TGI worked out at 12.4 µM in assay [1]; 28.8 µM in assay [2]; 0.205 µM in assay [3]; 18.1 µM in assay [4]; 29.4 µM in assay [5]; 37.3 µM in assay [6]. The TGI is 29.5 µM in assay [7], 17.3 µM in assay [8], > 48.7 µM in assay [9] and 14.6 µM in assay [10].
As to `CC(=O)OC1=CC(n2cc(F)c(=O)[nH]c2=O)OC(C)C1=O` (centres undefined), the TGI in [1] is > 100 µM; in assay [2], 29 µM; in assay [3], > 100 µM; in [4], > 100 µM; in assay [5], > 100 µM; in assay [6], > 100 µM. The TGI in assay [7], in [8], in assay [9] and in [10] was > 100 µM each time.
As for `NS(=O)(=O)c1cc(Br)c(N=Nc2ccc(O)c3ncccc23)c(Br)c1`, the TGI in assay [1] was 79.6 µM; in assay [2], > 100 µM; in assay [3] it was > 100 µM; in [4], > 100 µM; in assay [5], > 100 µM; in [6], 67.3 µM. Also, the TGI in assay [7], in [8], in assay [9] and in assay [10] was > 100 µM each time.
As to `OCc1ccc(-c2ccc(-c3ccc(CO)s3)o2)s1`, the TGI is > 88.8 µM in assay [1]; > 85.8 µM in assay [2]; 1.77 µM in assay [3]; > 100 µM in [4]; 50.7 µM in [5]; 0.0669 µM in assay [6]. Further, the TGI is 0.171 µM in [7], > 85.8 µM in assay [8], 71.5 µM in [9] and 45.2 µM in assay [10].
In the case of `COC1=CC(=O)C(C2CC(=O)c3c(O)cc(O)cc3O2)=CC1=O` (centres undefined), the TGI in assay [1] is 34.8 µM; in assay [2] it was 39.5 µM; in [3], 34.8 µM; in [4] it was 44.4 µM; in [5] it was 42.9 µM; in [6], 34.9 µM. The TGI was found to be 31.8 µM in assay [7], 31.7 µM in assay [8], 5.12 µM in assay [9] and 32.9 µM in [10].
Turning to `Cn1cnc([N+](=O)[O-])c1S(=O)(=O)Oc1cccc2ccccc12`, the GI50 in [1] was 1.83 µM; in [2], 2.23 µM; in assay [3], 2.3 µM; in assay [4] it was 1.36 µM; in assay [5] it was 14.4 µM; in assay [6], 2.36 µM. Further, the GI50 in [7] was 1.59 µM; in assay [8], 14.4 µM; in assay [9], 3.37 µM; in [10], 2.1 µM. Further, the TGI in assay [1] was found to be 4.98 µM; in assay [2] it was 5.59 µM; in assay [3], 4.3 µM; in [4], 2.89 µM; in [5], 30.7 µM; in [6], 6.29 µM. The TGI in [7] amounted to 2.98 µM; in assay [8], 29.3 µM; in assay [9], 22.7 µM; in [10], 5.11 µM.
As for `CC(C)C(C)/C=C\C(C)C1CCC2C3=CC=C4CC(O)CCC4(C)C3CCC21C` (centres undefined), the TGI in [1] is > 50.6 µM; in assay [2], > 64 µM; in [3], > 58.7 µM; in [4], > 72.3 µM; in assay [5], > 85.6 µM; in assay [6], > 100 µM. The TGI in [7] was > 100 µM; in assay [8], > 60.7 µM; in assay [9] it was 58.3 µM; in assay [10], > 57.2 µM.
Turning to `CSc1nc(NC2OCC(OC(C)=O)C(OC(C)=O)C2OC(C)=O)c(N=CC=Nc2c(NC3OCC(OC(C)=O)C(OC(C)=O)C3OC(C)=O)nc(SC)[nH]c2=O)c(=O)[nH]1` (centres undefined), the TGI was > 100 µM in assay [1]; > 86.4 µM in [2]; 53 µM in assay [3]; > 100 µM in assay [4]; > 100 µM in assay [5]; > 100 µM in assay [6]. Also, the TGI in assay [7], in assay [8], in assay [9] and in assay [10] was > 100 µM each time.
For the compound `Cc1cc(O)c(/C=N/C(=S)NCc2ccccc2)c(=O)o1`, the TGI in assay [1], in [2], in assay [3], in assay [4], in assay [5] and in [6] was > 100 µM in each case. For the same compound, the TGI in assay [7], in [8], in assay [9] and in assay [10] was > 100 µM in each case.
With `CC(C)(C)OC(=O)N[C@H]1CC2(C=C(Cl)C(=O)C(Cl)=C2)OC1=O`, the TGI in assay [1] was determined as 25.9 µM; in assay [2], 45.1 µM; in [3], 22.4 µM; in [4], 19.1 µM; in assay [5], 29.9 µM; in assay [6] it was 21.2 µM. Further, the TGI in assay [7] is 33.8 µM; in assay [8], 28.6 µM; in assay [9] it was 15.7 µM; in assay [10] it was 28 µM.

The values are drawn from PubChem BioAssay (NCI).
